Results taken from patent US20210278408A1, “METHODS OF TREATMENT OF CANCER WITH SUBSTITUTED PYRROLE AND PYRAZOLE COMPOUNDS AND DIAGNOSIS OF CANCERS SUSCEPTIBLE TO TREATMENT WITH SUBSTITUTED PYRROLE AND PYRAZOLE COMPOUNDS” (Bantam Pharmaceutical, LLC, priority 2018, published 2021).

Legend:
DNA Damage = assay: High content imaging screen: DNA damage (Histone H2A.x phosphorylation); format: cell-based; settings: Histtone H2A.x phosphorylation as marker
Description: Mechanism of Action Screens A series of broad high content imaging, transcriptomic, metabolomic, and CRISPR KO screens were performed to link Compound A197 activity to a probable method of action. The outcome of these screens included two notable observations.

SU-DHL-2 = assay: Total cellular GSH levels (GSH-Glo): SU-DHL-2; format: cell-based, human; settings: 4 hrs, mean ± std. dev.
Description: NHLF, BJAB, SU-DHL-2, and HCT-116 cells were treated with Compound A197 for 4 hours prior to lysate harvest. Total cellular glutathione (GSH) levels were determined using a luminescent endpoint (GSH-Glo, Promega). Cell proliferation was determined using Cell-Titre Glo following 72 hours of compound treatment. All data shown is mean±SD of three biological replicates.

With `Cc1nn(-c2nc(-c3ccc(C(F)(F)F)cc3)c(SC(C)C)s2)c(C(=O)O)c1-c1cccc(F)c1` [Compound A197, 4-(3-fluorophenyl)-1-(5-(isopropylthio)-4-(4-(trifluoromethyl)phenyl)thiazol-2-yl)-3-methyl-1H-pyrazole-5-carboxylic acid] the “Outcome: DNA Damage” value (DNA Damage) was “No evidence of DNA damage using Histtone H2A.x”, the “GSH % Max reduction” value (SU-DHL-2) was 52 ± 4% and the IC50 (SU-DHL-2; Homo sapiens, read-out: GSH IC50 (Abs)) was 120 ± 50 nM.
